Assay results as given in the supplement of paper PMC8960247.
Structures can show the parent of a compound that is named as a salt. ± gives the standard error.

Assays:
621-102 (TSC2-deficient) = assay: relative viability vs DMSO; higher = less cytotoxic; conditions: serum: 10% FBS, 72 h
621-103 (TSC2-rescued) = assay: as above; conditions: serum: 10% FBS, 72 h
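Note: immortalized renal angiomyolipoma cells stably carrying empty vector or TSC2, dosed in 384-well plates in DMEM, viability normalized to vehicle-treated wells within each plate.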

Compound | relative viability (621-102 (TSC2-deficient); 0.0001 µM) [%] | relative viability (621-102 (TSC2-deficient); 0.001 µM) [%] | relative viability (621-102 (TSC2-deficient); 0.01 µM) [%] | relative viability (621-102 (TSC2-deficient); 0.1 µM) [%] | relative viability (621-102 (TSC2-deficient); 1 µM) [%] | relative viability (621-102 (TSC2-deficient); 10 µM) [%] | relative viability (621-103 (TSC2-rescued); 0.0001 µM) [%] | relative viability (621-103 (TSC2-rescued); 0.001 µM) [%] | relative viability (621-103 (TSC2-rescued); 0.01 µM) [%] | relative viability (621-103 (TSC2-rescued); 0.1 µM) [%] | relative viability (621-103 (TSC2-rescued); 1 µM) [%] | relative viability (621-103 (TSC2-rescued); 10 µM) [%]
Cn1c(N2CCCCS2(=O)=O)nc(C(=O)NCc2ccc(F)cc2)c(O)c1=O | 104 ± 2.9 | 106 ± 1.5 | 106 ± 1.5 | 102 ± 1.9 | 108.8 ± 0.34 | 99.97 ± 0.61 | 99.8 ± 2.4 | 105.9 ± 0.6 | 101 ± 2.4 | 101 ± 2.1 | 100.8 ± 0.82 | 100 ± 1.4
N[C@@H](CC(=O)N1CCn2c(nnc2C(F)(F)F)C1)Cc1cc(F)c(F)cc1F [Sitagliptin phosphate] | 98.7 ± 0.22 | 104.4 ± 0.16 | 103 ± 2.5 | 94 ± 4.4 | 96.2 ± 1.3 | 91.46 ± 0.51 | 97.02 ± 0.71 | 97.6 ± 1.3 | 98.68 ± 0.34 | 100 ± 2 | 98.8 ± 2.4 | 101 ± 0.53
COc1cc2c(N3CCN(C(=O)Nc4ccc(OC(C)C)cc4)CC3)ncnc2cc1OCCCN1CCCCC1 [Tandutinib (MLN518)] | 107 ± 3.1 | 97.9 ± 4.1 | 99.7 ± 0.23 | 96.6 ± 3 | 98.2 ± 3.4 | 80 ± 2.4 | 99.4 ± 1.1 | 99.87 ± 0.96 | 101 ± 2.1 | 101 ± 1.9 | 99.31 ± 0.29 | 83.4 ± 1.2
CC(C)c1cnn2c(NCc3ccccc3)cc(NCCCCCCN)nc12 [BS-181] | 112 ± 2.3 | 107 ± 3.7 | 106.4 ± 0.99 | 94.74 ± 0.88 | 116 ± 2.2 | 81.2 ± 7.1 | 101 ± 2.2 | 101.1 ± 1 | 99.7 ± 1.7 | 88.3 ± 1.2 | 100 ± 1.4 | 55.7 ± 5.2
Cn1c(CNc2ccc(C(=N)N)cc2)nc2cc(C(=O)N(CCC(=O)O)c3ccccn3)ccc21 [BIBR 953] | 64.4 ± 4.5 | 77.2 ± 5.6 | 90.2 ± 2.2 | 88.6 ± 4.5 | 82.7 ± 9.1 | 81 ± 4.6 | 78 ± 9 | 76.5 ± 10 | 82.8 ± 11 | 94.1 ± 7.3 | 88.3 ± 6.7 | 91.3 ± 4.6
CO[C@@H]1[C@@H](OC(N)=O)[C@@H](O)[C@H](Oc2ccc3c(O)c(NC(=O)c4ccc(O)c(CC=C(C)C)c4)c(=O)oc3c2C)OC1(C)C [Novobiocin sodium (Albamycin)] | 97.5 ± 4.2 | 94.9 ± 2.2 | 99 ± 4 | 112 ± 1.2 | 107 ± 6.3 | 105 ± 4.1 | 104 ± 1.3 | 104.4 ± 0.12 | 102 ± 3.3 | 98.6 ± 2.8 | 105 ± 4.4 | 98.5 ± 3.8
O=C(O)/C=C/c1ccc(Cn2ccnc2)cc1 [Ozagrel] | 100 ± 3.7 | 108 ± 3.7 | 105 ± 2.5 | 110 ± 5.1 | 102.8 ± 0.53 | 95.1 ± 4.6 | 107 ± 1.8 | 112 ± 1.7 | 98.4 ± 2.8 | 104 ± 3.1 | 106 ± 2.4 | 103 ± 1.1
COc1nc(C)cnc1NS(=O)(=O)c1cccnc1-c1ccc(-c2nnco2)cc1 [Zibotentan (ZD4054)] | 118 ± 2.6 | 100 ± 3.1 | 109.9 ± 0.58 | 114 ± 2.4 | 105 ± 3.6 | 120 ± 1.6 | 103.31 ± 0.00057 | 99.8 ± 1.5 | 100.2 ± 0.14 | 100.5 ± 0.75 | 101 ± 1 | 102.5 ± 0.2
CO[C@H]1C[C@@H]2CC[C@@H](C)[C@@](O)(O2)C(=O)C(=O)N2CCCC[C@H]2C(=O)O[C@H]([C@H](C)C[C@@H]2CC[C@@H](O)[C@H](OC)C2)CC(=O)[C@H](C)/C=C(\C)[C@@H](O)[C@@H](OC)C(=O)[C@H](C)C[C@H](C)/C=C/C=C/C=C/1C [Rapamycin (Sirolimus)] | 37 ± 2.8 | 43.2 ± 5 | 38.8 ± 3.9 | 41.6 ± 2.9 | 44.6 ± 5.5 | 44.8 ± 2 | 80.829 ± 0.071 | 63.1 ± 2.6 | 70 ± 2.1 | 78.1 ± 1.8 | 71.36 ± 0.67 | 68.1 ± 2.8
O=C(Nc1cccc(Cl)c1)Nc1ncc(CCNc2ncnc3ccsc23)s1 [SNS-314 Mesylate] | 107 ± 3 | 85.4 ± 1.4 | 83.06 ± 0.37 | 65.9 ± 0.75 | 79.5 ± 4.8 | 67.3 ± 1.1 | 102.7 ± 0.28 | 104 ± 1.1 | 98.4 ± 1.1 | 93.6 ± 1.6 | 89.5 ± 1.7 | 77.2 ± 2.1
COc1ccc(-c2cc3c(C)nc(N)nc3n([C@H]3CC[C@H](OCCO)CC3)c2=O)cn1 | 101 ± 5.6 | 110 ± 2.5 | 91.2 ± 5 | 65.6 ± 0.94 | 26.7 ± 0.68 | 14.1 ± 0.26 | 92.8 ± 1.8 | 98.4 ± 2.6 | 88.1 ± 2.7 | 56.7 ± 2 | 30.52 ± 0.21 | 18.61 ± 0.18
CC[C@]12C=CCN3CC[C@@]4(c5cc([C@@]6(C(=O)OC)C[C@@H]7C[C@@H](C(C)(F)F)CN(Cc8c6[nH]c6ccccc86)C7)c(OC)cc5N(C)[C@H]4[C@@](O)(C(=O)OC)[C@@H]1OC(C)=O)[C@@H]32 [Vinflunine Tartrate] | 91.28 ± 0.35 | 96.3 ± 1.4 | 64.68 ± 0.39 | 44.8 ± 3.1 | 32 ± 1.2 | 28.9 ± 0.74 | 99.3 ± 1.7 | 93 ± 2.6 | 66.9 ± 1.8 | 34.9 ± 1.6 | 29.8 ± 0.55 | 23.6 ± 0.65
COc1ccc([C@H]2CNC(=O)C2)cc1OC1CCCC1 [S-(+)-Rolipram] | 101 ± 4.1 | 102 ± 1.8 | 102 ± 3.9 | 101 ± 2.3 | 96.742 ± 0.089 | 103.39 ± 0.018 | 103 ± 5.1 | 100 ± 2 | 104 ± 3.3 | 104 ± 2.8 | 104 ± 3.2 | 106 ± 2.3
NC(=O)c1cccc(-c2cccc(OC(=O)NC3CCCCC3)c2)c1 [URB597] | 104.9 ± 0.41 | 107 ± 7 | 109.5 ± 0.46 | 98.4 ± 2.9 | 99.6 ± 4.4 | 92.7 ± 5.8 | 103 ± 3.1 | 106 ± 3.3 | 103 ± 1.4 | 106 ± 2.8 | 104 ± 4 | 112.8 ± 0.77
Nc1ccn([C@@H]2O[C@H](CO)[C@@H](O)[C@@H]2O)c(=O)n1 [Cytarabine (Cytosar-U)] | 88.2 ± 4 | 93.49 ± 0.71 | 96.2 ± 2.2 | 89.35 ± 0.62 | 74.5 ± 2.8 | 49.4 ± 1.1 | 115 ± 4.8 | 106 ± 4.1 | 110 ± 0.82 | 105.2 ± 0.25 | 88.313 ± 0.062 | 38 ± 0.93
COc1cc2nccc(Oc3ccc(NC(=O)C4(C(=O)Nc5ccc(F)cc5)CC4)cc3)c2cc1OC [XL184] | 110.1 ± 0.14 | 97.1 ± 3.1 | 98.8 ± 3.1 | 107 ± 1.7 | 107 ± 2 | 99.4 ± 0.21 | 97.27 ± 0.56 | 98.1 ± 1.1 | 96.6 ± 1.1 | 98.8 ± 2.2 | 98.7 ± 1.5 | 81.9 ± 4.7
Oc1ccc(-c2nc(-c3ccc(F)cc3)c(-c3ccncc3)[nH]2)cc1 | 104 ± 3.7 | 106.7 ± 0.78 | 104 ± 3.6 | 104.8 ± 0.31 | 103.8 ± 0.12 | 105 ± 2.4 | 99.5 ± 0.91 | 99.83 ± 0.79 | 99.49 ± 0.82 | 97.7 ± 1.4 | 98.4 ± 1.1 | 98.8 ± 1.3
Clc1ccc(C(Cn2ccnc2)OCc2c(Cl)cccc2Cl)c(Cl)c1 (stereo not drawn) [Isoconazole] | 104 ± 1.2 | 107 ± 2.4 | 86.81 ± 0.67 | 108.4 ± 0.37 | 107 ± 1.4 | 100 ± 4.3 | 104 ± 2.4 | 109 ± 4 | 105 ± 1 | 103.2 ± 0.24 | 108 ± 1.4 | 95.32 ± 0.49
Cc1ccc(F)c(NC(=O)Nc2ccc(-c3cccc4[nH]nc(N)c34)cc2)c1 [ABT-869] | 106 ± 3 | 100.3 ± 0.6 | 108 ± 1.6 | 108 ± 5.5 | 107 ± 2.2 | 86 ± 1.5 | 97.84 ± 0.17 | 100 ± 1.3 | 108 ± 6.2 | 107 ± 3.4 | 109.7 ± 0.82 | 80.4 ± 3.2
